Source: the supplement of paper PMC10307832

Legend:
Experiment in all cases: relative viability (nuclei count vs DMSO), 5 days (fraction); higher = more cells survive
AT-7519 + Lapatinib = compound: O=C(NC1CCNCC1)c1n[nH]cc1NC(=O)c1c(Cl)cccc1Cl [AT-7519] + CS(=O)(=O)CCNCc1ccc(-c2ccc3ncnc(Nc4ccc(OCc5cccc(F)c5)c(Cl)c4)c3c2)o1 [Lapatinib] (partner 2 µM)
How it was run: (§1)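 Cells from lung cancer lines were seeded into 1536-well plates and, one day later, dosed by pin tool. Treatments were either a single drug or a fixed dose of an anchor drug with five library-drug doses (not always all listed) in √10 steps. After 5 days, nuclei were stained in a one-step fixation (final 0.05% Triton X-100, 1% formaldehyde, 1 ug/ml Hoechst) and counted on 4× images, and relative viability is the treated-to-vehicle nuclei ratio, as the median of duplicate plates.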

[1] = compound: C1=CC2=C(C=C(C(=C2N=C1)O)N=NC3=CC4=C(C=C3)C=C(C=C4)S(=O)(=O)O)S(=O)(=O)O + N=C(N)NC(=N)NCCc1ccccc1 [Phenformin] (partner 250 µM)
How it was run: as §1

[2] = compound: C1=CC2=C(C=C(C(=C2N=C1)O)N=NC3=CC4=C(C=C3)C=C(C=C4)S(=O)(=O)O)S(=O)(=O)O + O=C(CCCCCCC(=O)Nc1ccccc1)NO [Vorinostat] (partner 1 µM)
How it was run: as §1

AT-7519 + Vorinostat = compound: O=C(NC1CCNCC1)c1n[nH]cc1NC(=O)c1c(Cl)cccc1Cl [AT-7519] + O=C(CCCCCCC(=O)Nc1ccccc1)NO [Vorinostat] (partner 1 µM)
How it was run: as §1

Cell Line	relative viability (AT-7519 + Lapatinib; first compound 0.01 µM)	relative viability (AT-7519 + Lapatinib; first compound 0.03162 µM)	relative viability (AT-7519 + Lapatinib; first compound 0.3162 µM)	relative viability (AT-7519 + Lapatinib; first compound 1 µM)	relative viability ([1]; first compound 0.08 µM)	relative viability ([1]; first compound 0.253 µM)	relative viability ([1]; first compound 0.8 µM)	relative viability ([1]; first compound 2.53 µM)	relative viability ([1]; first compound 8 µM)	relative viability ([2]; first compound 0.08 µM)	relative viability ([2]; first compound 0.253 µM)	relative viability ([2]; first compound 0.8 µM)	relative viability ([2]; first compound 2.53 µM)	relative viability ([2]; first compound 8 µM)	relative viability (AT-7519 + Vorinostat; first compound 0.01 µM)	relative viability (AT-7519 + Vorinostat; first compound 0.03162 µM)	relative viability (AT-7519 + Vorinostat; first compound 0.3162 µM)	relative viability (AT-7519 + Vorinostat; first compound 1 µM)
HCC-78	0.837	0.79	1.08	0.878	0.725	0.617	0.651	0.74	0.685	0.437	0.471	0.458	0.437	0.434	0.411	0.409	0.438	0.417
IA-LM	0.911	0.821	0.658	0.0627						1.09	0.95	0.97	1.04	0.935	0.607	0.501	1.01	0.723
NCI-H322M	0.648	0.606	0.525	0.67	0.877	0.744	0.727	0.705	0.809	0.967	0.825	0.864	0.856	0.905	0.846	0.982	0.731	0.83
NCI-H3122	1.02	0.986	1.08	0.701	0.369	0.379	0.378	0.418	0.323	1.16	1.04	0.96	0.814	0.948	1.06	1.07	1.04	0.757
COR-L23	1.14	0.786	0.325	0.121	0.488	0.43	0.422	0.419	0.45	0.484	0.396	0.418	0.449	0.599	0.508	0.507	0.344	0.152
NCI-H2087	1.2	1.11	0.998	0.185	0.469	0.447	0.452	0.455	0.459	0.69	0.804	0.795	0.702	0.676	1.01	0.632	0.607	0.206
LC-2-ad	1.03	1.05	0.922	0.744	0.575	0.553	0.548	0.588	0.651	0.702	0.744	0.729	0.699	0.725	0.717	0.665	0.748	0.781
NCI-H1915	1.02	0.987	0.863	0.8	0.368	0.381	0.352	0.357	0.37	0.539	0.547	0.518	0.513	0.527	0.537	0.558	0.588	0.546
NCI-H1793	0.554	0.713	0.421	0.226	0.416	0.416	0.346	0.442	0.379	0.797	0.814	0.795	0.78	0.838	0.514	0.849	0.615	0.767
NCI-H2023	0.911	0.755	0.504	0.177	0.393	0.394	0.432	0.376	0.379	0.844	0.581	0.621	0.641	0.633	0.759	0.503	0.46	0.269
COR-L 105	0.397	0.397	0.319	0.293	0.459	0.464	0.421	0.441	0.463	0.852	0.86	0.742	0.866	0.881	0.791	0.856	0.686	0.499
NCI-H1792	0.673	0.845	0.98	0.94	0.261	0.343	0.254		0.295									
ChaGo-K-1					0.444	0.491	0.525	0.531	0.359	0.827	0.812	0.698	0.723	0.494	0.734	0.741	0.797	0.752
NCI-H2342					0.629	0.582	0.537	0.621	0.528	0.834	0.709	0.72	0.695	0.688	0.773	0.696	0.772	0.631
NCI-H1299	0.994	0.977	0.975	0.58														
SW 900					0.576	0.669	0.517	0.552	0.275	0.624	0.399	0.604	0.611	0.426	0.398	0.482	0.294	0.493
NCI-H1648											0.825			0.479	0.479		0.29	0.3
NCI-H522					0.658	0.64	0.71	0.603	0.612	0.98	1.01	0.943	0.999	0.977	0.933	0.815	0.963	1.05
A549	0.879	1.01	0.856	0.349	0.203	0.155	0.189	0.186	0.0602									
NCI-H1563	0.923	0.971	1.07	1.01	0.63	0.677	0.684	0.626	0.629									
LCLC-103H					0.33	0.356	0.298	0.358	0.369	0.797	0.784	0.827	0.785	0.859	0.848	0.774	0.768	0.814
NCI-H441					0.918	0.761	0.731	0.947	0.821	0.903	0.684	0.845	0.805	0.837	0.838	0.834	0.796	0.693
